Measurements taken from patent US8420144B2, “Kokumi-imparting agent, method of using, and compositions containing same” (Ajinomoto Co., Inc., priority 2005, dated 2013).

Assays:
human calcium receptor = biological target: T1, human calcium receptor (Homo sapiens, UniProt P41180); experiment: Calcium receptor activation activity: Ca ion concentration-dependent Cl ionic current in Xenopus laevis oocyte expression system; format: cell-based
T1 construct: expressed in transfected cells; host or cells: Xenopus laevis oocytes microinjected with cRNA; gene amplified by PCR from human kidney cDNA (Clontech)
T1 sequence (P41180 20-1078): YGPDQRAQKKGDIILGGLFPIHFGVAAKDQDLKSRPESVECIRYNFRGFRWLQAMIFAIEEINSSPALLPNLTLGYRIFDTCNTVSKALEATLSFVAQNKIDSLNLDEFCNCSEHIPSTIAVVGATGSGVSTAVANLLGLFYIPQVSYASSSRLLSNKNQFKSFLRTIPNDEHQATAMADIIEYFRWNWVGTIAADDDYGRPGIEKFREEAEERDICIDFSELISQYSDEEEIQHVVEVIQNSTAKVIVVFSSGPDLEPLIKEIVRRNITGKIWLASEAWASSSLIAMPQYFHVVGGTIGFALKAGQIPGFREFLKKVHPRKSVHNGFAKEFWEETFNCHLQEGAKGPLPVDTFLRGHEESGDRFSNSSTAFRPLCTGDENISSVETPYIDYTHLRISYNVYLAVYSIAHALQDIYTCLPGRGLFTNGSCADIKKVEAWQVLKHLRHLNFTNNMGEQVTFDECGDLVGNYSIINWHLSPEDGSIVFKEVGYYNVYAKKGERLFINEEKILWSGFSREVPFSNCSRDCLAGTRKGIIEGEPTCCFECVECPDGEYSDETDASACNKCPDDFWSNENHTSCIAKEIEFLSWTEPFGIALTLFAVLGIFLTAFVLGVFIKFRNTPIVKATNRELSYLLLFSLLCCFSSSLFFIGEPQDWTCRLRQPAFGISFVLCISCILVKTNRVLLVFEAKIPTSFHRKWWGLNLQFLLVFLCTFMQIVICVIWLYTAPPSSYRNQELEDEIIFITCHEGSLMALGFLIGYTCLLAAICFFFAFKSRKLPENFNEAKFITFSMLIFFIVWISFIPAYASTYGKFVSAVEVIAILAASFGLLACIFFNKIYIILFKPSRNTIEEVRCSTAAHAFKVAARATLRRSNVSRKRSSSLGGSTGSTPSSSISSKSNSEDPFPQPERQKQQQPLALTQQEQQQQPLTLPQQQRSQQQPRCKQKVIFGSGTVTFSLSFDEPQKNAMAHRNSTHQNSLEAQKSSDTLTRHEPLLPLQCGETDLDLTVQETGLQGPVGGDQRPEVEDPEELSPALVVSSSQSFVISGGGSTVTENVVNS
Experimental: To evaluate calcium receptor activation activity, a Ca ion concentration-dependent Cl ionic current measuring method using a Xenopus laevis oocyte expression system was used. If each activator is added to Xenopus laevis oocytes expressing the calcium receptor, intracellular Ca ions increase. Then, the Ca ion concentration-dependent Cl channel opens, and the intracellular current value changes as an ionic current. By measuring the change in this intracellular current value, the presence or absence of calcium receptor activation activity can be determined.
Specifically, the abdomen of Xenopus laevis was opened, and an egg batch was taken out and treated with a 1% collagenase solution at 20° C. for 2 hours to obtain individual oocytes. Into the oocytes, 50 nl of 1 μg/μl receptor cRNA or 50 nl of sterilized water per oocyte was introduced by using a micro glass capillary, and the oocytes were cultured at 18° C. for 2 or 3 days. For the culture, a solution obtained by adding 2 mM pyruvic acid, 10 U/ml of penicillin, and 10 μg/ml of streptomycin to the solution in Example 2 was used. After the culture, a test solution was added to the oocytes containing either the cRNA or sterilized water. Electrophysiological measurement was performed by using an amplifier, Geneclamp500 (Axon), and recording software, AxoScope 9.0 (Axon). The oocytes were voltage-clamped at −70 mV by the double electrode voltage clamp method, and the intracellular current was measured via the Ca ion concentration-dependent Cl ion channel. The maximum value of the intracellular current was considered as the response current value.
Calcium receptor activation activity of L-amino acids was evaluated by using the method described in Example 13. That is, oocytes containing either cRNA of the calcium receptor or sterilized water were prepared, and voltage-clamped at −70 mV by the double electrode voltage clamp method. To the voltage-clamped oocytes, alanine (10 mM), arginine (10 mM), asparagine (10 mM), aspartic acid (10 mM), cysteine (10 mM), glutamine (10 mM), glutamic acid (10 mM), glycine (10 mM), histidine (10 mM), isoleucine (10 mM), leucine (10 mM), lysine (10 mM), methionine (10 mM), phenylalanine (10 mM), proline (10 mM), serine (10 mM), threonine (10 mM), tryptophan (10 mM), tyrosine (10 mM), valine (10 mM), ornithine (10 mM), taurine (10 mM), or hydroxyproline (10 mM) was added, and Ca ion concentration-dependent Cl response current was measured. […] As for the aforementioned amino acids, the activation activity was reported in Proc. Natl. Acad. Sci. USA, 2000 Apr. 25, 97(9):4814-9.
Calcium receptor activation activity of D-cysteine was evaluated by using the method described in Example 13. That is, oocytes containing either cRNA of the calcium receptor or sterilized water were prepared, and voltage-clamped at −70 mV by the double electrode voltage clamp method. To the voltage-clamped oocytes, D-cysteine (10 mM), L-cysteine (10 mM), D-tryptophan (10 mM), or L-tryptophan (10 mM) was added, and Ca ion concentration-dependent Cl response current was measured.
Calcium receptor activation activity of peptides was evaluated by using the method described in Example 13. That is, oocytes containing either cRNA of the calcium receptor or sterilized water were prepared, and voltage-clamped at −70 mV by the double electrode voltage clamp method.
Calcium receptor activation activity of peptides was evaluated in the same manner as that of Example 17. Each of the peptides shown in Table 2 was added to voltage-clamped oocytes at 1000 μM, 300 μM, 100 μM, 30 μM, 10 μM, 3 μM, 1 μM, 0.3 μM, and 0.1 μM, and Ca ion concentration-dependent Cl response current was measured.

[1] = Quantitative sensory evaluation test: imparting kokumi to curry sauce; format: in vivo, human; details: n=12, 0 control, 3 intense, 5 extremely intense
Experimental: The intensity of the activity for imparting kokumi to curry sauce of each peptide having confirmed calcium receptor activation activity was measured by a quantitative sensory evaluation test, performed as follows: to curry sauce prepared in a conventional manner by using commercially available curry roux, samples of either γ-Glu-Cys-Gly (glutathione) or γ-Glu-Val-Gly were added to a concentration of 0.0001 to 1 g/dl, and the intensity of kokumi-imparting activity was measured for each sample. The curry sauces with the samples that became acidic after dissolution of the samples with respect to the curry soup without the samples were adjusted with NaOH to pH not lower or higher by 0.2 than pH of the curry soup without the samples before use. Sensory evaluation scores were used to evaluate as follows: 0 points for the control sample, 3 points for intense activity as compared to the control, and 5 points for extremely intense activity as compared to the control, and the test was performed with n=12.

| SMILES | calcium receptor activation activity (Ca ion concentration-dependent Cl response current) (human calcium receptor; 50 μM peptide, oocytes voltage-clamped at −70 mV) | Intensity of kokumi: Aftertaste ([1]; 0.01 g/dl) [points] | Intensity of kokumi: First and middle taste ([1]; 0.01 g/dl) [points] | Activity (lowest concentration for which current was detected) (human calcium receptor; added at 1000, 300, 100, 30, 10, 3, 1, 0.3 and 0.1 μM) [µM] | Intensity of kokumi: Aftertaste ([1]; 0.001 g/dl) [points] | Intensity of kokumi: First and middle taste ([1]; 0.001 g/dl) [points] | Intensity of kokumi: Aftertaste ([1]; 0.005 g/dl) [points] | Intensity of kokumi: First and middle taste ([1]; 0.005 g/dl) [points] | Intensity of kokumi: Aftertaste ([1]; 0.1 g/dl) [points] | Intensity of kokumi: First and middle taste ([1]; 0.1 g/dl) [points] |
| --- | --- | --- | --- | --- | --- | --- | --- | --- | --- | --- |
| N[C@@H](CCC(=O)N[C@@H](CS)C(=O)NCC(=O)O)C(=O)O [γ-Glu-Cys-Gly, reference compound] | definitive calcium receptor activation activity | 3.0 | 3.0 |  |  |  |  |  |  |  |
| CC(C)[C@H](NC(=O)CC[C@H](N)C(=O)O)C(=O)NCC(=O)O [γ-Glu-Val-Gly] |  | 5.0 | 5.0 | 0.1 | 3.0 | 2.5 | 4.0 | 3.5 | 5.0 | 5.0 |
